In patent publication US5342839A, “2-hydroxy-3-phenoxy-propyl-substituted piperazines, their preparation and use” (BASF Aktiengesellschaft, priority 1988, dated 1994):

How the values were obtained:
[1] = Protection from global cerebral ischemia (survival time of mice after MgCl2); assay type: in vivo; conditions: female mice, i.p., before 0.1 ml of 80% strength MgCl2.6H2O solution; for ED50: Mus musculus, ip, read-out: Test 2 ED 50% (dose which increases survival time of the animals by 50%), global ischemia
Procedure: 2. Protection from global cerebral ischemia
Female mice (weight 24-27 g) received the active substance intraperitoneally before administration of 0.1 ml of an 80% strength solution (g/l) of MgCl2.6H2 O. Untreated control animals survive 24 sec. on average after administration of MgCl2. The dose of active substances which increases the survival time of the animals by 50% compared with placebo-treated animals was determined.

[2] = Protection from acute cerebral hypoxia (survival time of mice in 3.5 parts O2/96.5 parts N2); assay type: in vivo; conditions: female mice, i.p., hypoxia 3.5 parts oxygen/96.5 parts nitrogen; for ED50: Mus musculus, ip, read-out: Test 1 ED 50% (dose which increases survival time of the animals by 50%), hypoxia
Procedure: 1. Protection from acute cerebral hypoxia
Female mice (weight 22-28 g) were placed in a glass tube (diameter 6 cm) through which was passed a mixture of 3.5 parts of oxygen and 96.5 parts of nitrogen. Untreated control animals survived 138 sec. on average in a glass tube of this type. The dose of active substances which, after intraperitoneal administration thereof, increases the survival time of the animals by 50% was determined.

calcium channel = target: T1, calcium channel (Cavia porcellus, UniProt A0A286X7I0); test: Affinity to the calcium channel: inhibition of specific (S)-3H-devapamil binding to guinea-pig skeletal muscle membranes; conditions: 1 nM (S)-3H-devapamil, pH 7.4, 20° C., 60 minutes, read-out: Test 3 Ki
T1 construct: guinea-pig skeletal muscle membranes; from tissue; host or cells: guinea-pig skeletal muscle membranes
T1 sequence (A0A286X7I0 1-1867): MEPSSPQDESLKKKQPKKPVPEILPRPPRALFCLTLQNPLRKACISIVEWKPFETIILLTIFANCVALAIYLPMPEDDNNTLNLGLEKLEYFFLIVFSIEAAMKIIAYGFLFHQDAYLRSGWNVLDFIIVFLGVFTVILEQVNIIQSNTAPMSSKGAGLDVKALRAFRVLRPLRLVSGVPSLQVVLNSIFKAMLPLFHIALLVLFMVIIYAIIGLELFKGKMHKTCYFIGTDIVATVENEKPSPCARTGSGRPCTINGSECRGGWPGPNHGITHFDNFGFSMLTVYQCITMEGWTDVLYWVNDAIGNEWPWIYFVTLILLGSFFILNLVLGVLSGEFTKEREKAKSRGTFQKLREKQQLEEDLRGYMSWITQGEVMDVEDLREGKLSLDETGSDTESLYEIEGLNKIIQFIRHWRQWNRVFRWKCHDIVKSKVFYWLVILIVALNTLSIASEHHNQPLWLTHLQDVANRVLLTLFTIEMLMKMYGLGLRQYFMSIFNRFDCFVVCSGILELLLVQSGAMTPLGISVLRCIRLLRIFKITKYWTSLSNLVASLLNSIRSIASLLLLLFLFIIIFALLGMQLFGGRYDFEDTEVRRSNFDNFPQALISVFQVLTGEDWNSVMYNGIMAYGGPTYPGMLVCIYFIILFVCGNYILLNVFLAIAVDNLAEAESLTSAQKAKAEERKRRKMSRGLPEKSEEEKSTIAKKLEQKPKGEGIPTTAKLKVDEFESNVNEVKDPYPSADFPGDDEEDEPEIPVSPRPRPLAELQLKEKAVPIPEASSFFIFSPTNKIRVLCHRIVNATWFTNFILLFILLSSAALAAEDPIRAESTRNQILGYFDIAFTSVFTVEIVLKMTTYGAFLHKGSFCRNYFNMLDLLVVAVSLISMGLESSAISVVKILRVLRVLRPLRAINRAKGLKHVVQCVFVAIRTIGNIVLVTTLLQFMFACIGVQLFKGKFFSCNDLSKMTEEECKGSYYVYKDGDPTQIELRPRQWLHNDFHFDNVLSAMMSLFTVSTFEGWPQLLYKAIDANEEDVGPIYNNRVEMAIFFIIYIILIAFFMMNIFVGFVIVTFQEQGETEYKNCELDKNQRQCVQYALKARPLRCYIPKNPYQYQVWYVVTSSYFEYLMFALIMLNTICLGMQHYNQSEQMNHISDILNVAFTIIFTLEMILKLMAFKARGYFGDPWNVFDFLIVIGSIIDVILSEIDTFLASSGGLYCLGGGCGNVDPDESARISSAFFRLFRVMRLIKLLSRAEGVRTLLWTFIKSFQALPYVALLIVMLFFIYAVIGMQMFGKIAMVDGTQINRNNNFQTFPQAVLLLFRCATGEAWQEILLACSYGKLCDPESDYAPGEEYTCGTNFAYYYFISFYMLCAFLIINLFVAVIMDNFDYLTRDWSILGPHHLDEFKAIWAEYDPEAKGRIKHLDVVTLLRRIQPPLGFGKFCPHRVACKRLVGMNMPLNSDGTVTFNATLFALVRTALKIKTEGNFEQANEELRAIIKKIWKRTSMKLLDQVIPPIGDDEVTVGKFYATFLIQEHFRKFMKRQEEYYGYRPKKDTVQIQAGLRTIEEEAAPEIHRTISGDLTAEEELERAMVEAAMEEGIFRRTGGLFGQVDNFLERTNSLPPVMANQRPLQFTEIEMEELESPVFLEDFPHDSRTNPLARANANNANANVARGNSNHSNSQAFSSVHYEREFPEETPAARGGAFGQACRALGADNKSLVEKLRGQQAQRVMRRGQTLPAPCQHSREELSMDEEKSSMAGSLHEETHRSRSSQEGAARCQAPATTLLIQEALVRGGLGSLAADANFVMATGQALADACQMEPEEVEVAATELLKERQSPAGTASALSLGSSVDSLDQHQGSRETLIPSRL
Procedure: 3. Affinity of the test substances to the calcium channel.
The affinity of the test substances to the calcium channel was determined by inhibition of the specific (S)-^3 H-devapamil binding to guinea-pig skeletal muscle membranes (FEBS Lett. 176, 371 (1984)). For this, the membranes were incubated with a fixed concentration of 1 nM (S)-^3 H-devapamil and increasing concentrations of test substance in 50 mM tris-HCl/0.1 mM phenylmethylsulfonyl fluoride, (pH 7.4) at 20° C. for 60 minutes. The non-specific binding was determined using 10^-6 M (S)-devapamil. The mixtures were then filtered through glass fiber filters, and the amount of (S)-^3 H-devapamil retained on the filter was determined by liquid scintillation measurement. The Ki values were determined by non-linear regression analysis.

OC(COc1ccc(F)cc1)CN1CCN(CCCC(c2ccc(F)cc2)c2ccc(F)cc2)CC1 (single isomer, unassigned; (+)) [Example 30, (+)-1[4,4-bis(4-fluorophenyl)butyl]-4-[2-hydroxy-3(4-fluorophenoxy)propyl]piperazine]
ED50 [1]: 17 mg/kg | Test 1 ED 50% (dose which increases survival time of the animals by 50%), hypoxia [2]: 4.0 mg/kg | Ki (calcium channel): 10 nM

OC(COc1ccc(F)cc1)CN1CCN(CCC(c2ccccc2)c2ccccc2)CC1 (single isomer, unassigned; (+)) [Example 32]
Test 2 ED 50% (dose which increases survival time of the animals by 50%), global ischemia [1]: 9.5 mg/kg | Test 1 ED 50% (dose which increases survival time of the animals by 50%), hypoxia [2]: 4.2 mg/kg | Ki (calcium channel): 249 nM

OC(COc1ccc(F)cc1)CN1CCN(CCCC(c2ccc(F)cc2)c2ccc(F)cc2)CC1 (single isomer, unassigned; (-)) [Example 29, (-)-1[4,4-bis(4-fluorophenyl)butyl]-4-[2-hydroxy-3(4-fluorophenoxy)propyl]piperazine]
Test 2 ED 50% (dose which increases survival time of the animals by 50%), global ischemia [1]: 13 mg/kg | Test 1 ED 50% (dose which increases survival time of the animals by 50%), hypoxia [2]: 1.6 mg/kg | Ki (calcium channel): 9 nM

OC(COc1ccc(F)cc1)CN1CCN(CCC(c2ccccc2)c2ccccc2)CC1 (single isomer, unassigned; (-)) [Example 31]
ED50 [1]: 9.3 mg/kg | ED50 [2]: 4.1 mg/kg | Ki (calcium channel): 149 nM

OC(COc1ccc(Cl)cc1)CN1CCN(CCCC(c2ccc(F)cc2)c2ccc(F)cc2)CC1 (centres unmarked) [Example 1, 1-[4,4-bis(4-Fluorophenyl)butyl]-4-[2-hydroxy-3(4-chlorophenoxy)propyl]piperazine]
ED50 [1]: 27 mg/kg | ED50 [2]: 11 mg/kg | Ki (calcium channel): 8 nM

OC(COc1ccc(F)cc1)CN1CCN(CCCC(c2ccc(F)cc2)c2ccc(F)cc2)CC1 (centres unmarked) [Example 2, 1-[4,4-bis(4-fluorophenyl)butyl]-4-[2-hydroxy-3(4-fluorophenoxy)propyl]piperazine]
ED50 [1]: 20 mg/kg | ED50 [2]: 11 mg/kg | Ki (calcium channel): 9.1 nM

OC(COc1ccccc1)CN1CCN(CCCC(c2ccc(F)cc2)c2ccc(F)cc2)CC1 (centres unmarked) [Example 3, 1-[4,4-bis(4-fluorophenyl)butyl]-4-[2-hydroxy-3-phenoxypropyl]piperazine]
ED50 [1]: 13 mg/kg | ED50 [2]: 10 mg/kg | Ki (calcium channel): 8 nM

OC(COc1ccccc1)CN1CCN(CCCC(c2ccccc2)c2ccccc2)CC1 (centres unmarked) [Example 4, 1-[4,4-diphenylbutyl]-4-[2-hydroxy-3-phenoxypropyl]-piperazine]
ED50 [1]: 8.6 mg/kg | ED50 [2]: 6.6 mg/kg | Ki (calcium channel): 18 nM

OC(COc1ccccc1)CN1CCN(CCC(c2ccccc2)c2ccccc2)CC1 (centres unmarked) [Example 7, 1-[3,3-diphenylpropyl]-4-[2-hydroxy-3-phenoxypropyl]piperazine]
ED50 [1]: 10 mg/kg | ED50 [2]: 4.6 mg/kg | Ki (calcium channel): 280 nM

OC(COc1ccc(Cl)cc1)CN1CCN(CCC(c2ccccc2)c2ccccc2)CC1 (centres unmarked) [Example 8, 1-[3,3-diphenylpropyl]-4-[2-hydroxy-3(4-chlorophenoxy)propyl]piperazine]
ED50 [1]: 13 mg/kg | ED50 [2]: 5 mg/kg | Ki (calcium channel): 160 nM

OC(COc1ccc(Cl)cc1)CN1CCN(CC(c2ccccc2)c2ccccc2)CC1 (centres unmarked) [Example 9, 1-[2,2-diphenylethyl]-4-[2-hydroxy-3-(4-chlorophenoxy)propyl]piperazine]
ED50 [1]: 12 mg/kg | ED50 [2]: 7.3 mg/kg | Ki (calcium channel): 30 nM

OC(COc1cccc(C(F)(F)F)c1)CN1CCN(CCCC(c2ccc(F)cc2)c2ccc(F)cc2)CC1 (centres unmarked) [Example 11, 1-[4,4-bis(4-fluorophenyl)butyl]-4-[2-hydroxy-3(3-trifluoromethylphenoxy)propyl]piperazine]
ED50 [1]: 46 mg/kg | ED50 [2]: 4.9 mg/kg | Ki (calcium channel): 8 nM

OC(COc1ccc(Cl)c(Cl)c1)CN1CCN(CCCC(c2ccc(F)cc2)c2ccc(F)cc2)CC1 (centres unmarked) [Example 12, 1-[4,4-bis(4-fluorophenyl)butyl]-4-[2-hydroxy-3-(3,4-dichlorophenoxy)propyl]piperazine]
ED50 [1]: 45 mg/kg | ED50 [2]: 4.7 mg/kg | Ki (calcium channel): 16 nM

OC(COc1ccccc1Cl)CN1CCN(CCCC(c2ccc(F)cc2)c2ccc(F)cc2)CC1 (centres unmarked) [Example 13, 1-[4,4-bis(4-fluorophenyl)butyl]-4-[2-hydroxy-3-(c-chlorophenoxy)propyl]piperazine]
Test 2 ED 50% (dose which increases survival time of the animals by 50%), global ischemia [1]: 39 mg/kg | Test 1 ED 50% (dose which increases survival time of the animals by 50%), hypoxia [2]: 6.9 mg/kg | Ki (calcium channel): 10 nM

O=[N+]([O-])c1ccc(OCC(O)CN2CCN(CCCC(c3ccc(F)cc3)c3ccc(F)cc3)CC2)cc1 (centres unmarked) [Example 16, 1-[4,4-bis(4-fluorophenyl)butyl]-4-[2-hydroxy-3-(4-nitrophenoxy)propyl]piperazine]
ED50 [1]: 38 mg/kg | ED50 [2]: 5.5 mg/kg | Ki (calcium channel): 11 nM

N#Cc1ccccc1OCC(O)CN1CCN(CCCC(c2ccc(F)cc2)c2ccc(F)cc2)CC1 (centres unmarked) [Example 17, 1-[4,4-bis(4-fluorophenyl)butyl]-4-[2-hydroxy-3-(2-cyanophenoxy)propyl]piperazine]
ED50 [1]: 27 mg/kg | ED50 [2]: 16 mg/kg | Ki (calcium channel): 10 nM

OC(COc1ccc(F)cc1)CN1CCN(CCCC(c2ccccc2)c2ccccc2)CC1 (centres unmarked) [Example 22, 1-[4,4-diphenylbutyl]-4-[2-hydroxy-3-(4-fluorophenoxy)propyl]piperazine]
ED50 [1]: 8.8 mg/kg | ED50 [2]: 6 mg/kg | Ki (calcium channel): 15 nM

OC(COc1ccc(Cl)c(Cl)c1)CN1CCN(CCCC(c2ccccc2)c2ccccc2)CC1 (centres unmarked) [Example 23, 1-[4,4-diphenylbutyl]-4-[2-hydroxy-3-(3,4-dichlorophenoxy)propyl]piperazine]
ED50 [1]: 41 mg/kg | ED50 [2]: 8.6 mg/kg | Ki (calcium channel): 22 nM

Cc1ccc(C(CCCN2CCN(CC(O)COc3ccc(F)cc3)CC2)c2ccc(C)cc2)cc1 (centres unmarked) [Example 24, 1-[4,4-bis(4-methylphenyl)butyl]-4-[2-hydroxy-3-(4-fluorophenoxy)propyl]piperazine]
ED50 [1]: 40 mg/kg | ED50 [2]: 23 mg/kg | Ki (calcium channel): 12 nM

OC(COc1ccc(F)cc1)CN1CCN(CCCC(c2cccc(F)c2)c2cccc(F)c2)CC1 (centres unmarked) [Example 27, 1-[4,4-bis(3-fluorophenyl)butyl]-4-[2-hydroxy-3-(4-fluorophenoxy)propyl]piperazine]
ED50 [1]: 29 mg/kg | ED50 [2]: 14 mg/kg | Ki (calcium channel): 22 nM

OC(COc1ccc(F)cc1)CN1CCCN(CCCC(c2ccc(F)cc2)c2ccc(F)cc2)CC1 (centres unmarked) [Example 33, 1-[4,4-bis(4-fluorophenyl)butyl]-4-(2-hydroxy-3(4-fluorophenoxy)propyl]homopiperazine]
ED50 [1]: 31 mg/kg | ED50 [2]: 4.8 mg/kg | Ki (calcium channel): 13 nM

OC(CSc1ccc(F)cc1)CN1CCN(CCCC(c2ccc(F)cc2)c2ccc(F)cc2)CC1 (centres unmarked) [Example 34, 1-[4,4-bis(4-fluorophenyl)butyl]-4-[2-hydroxy-3-(4-fluoro-thiophenoxy)propyl]piperazine]
ED50 [1]: 28 mg/kg | ED50 [2]: 9 mg/kg | Ki (calcium channel): 9 nM

OC(CSc1ccccc1)CN1CCN(CCC(c2ccccc2)c2ccccc2)CC1 (centres unmarked) [Example 35]
ED50 [1]: 14 mg/kg | ED50 [2]: 8.7 mg/kg | Ki (calcium channel): 159 nM

Fc1ccc(C(c2ccc(F)cc2)N2CCN(C/C=C/c3ccccc3)CC2)cc1 [flunarizine, reference compound]
ED50 [1]: 26.5 mg/kg | ED50 [2]: > 100 mg/kg

Cc1cccc(C)c1NC(=O)CN1CCN(CCCC(c2ccc(F)cc2)c2ccc(F)cc2)CC1 [lidoflazine, reference compound]
ED50 [1]: > 46 mg/kg | ED50 [2]: 10 mg/kg | Ki (calcium channel): 20 nM
